Experimental data: PMC8380212, “^18F-labeled tracers targeting fibroblast activation protein” (EJNMMI Radiopharmacy and Chemistry, 2021)

Legend:
FAP (HT-1080-FAP cells) = molecular target: T1, FAP (HT-1080-FAP cells) (Homo sapiens, UniProt Q12884); assay: Competition experiments with unlabeled precursor on HT-1080-FAP cells; assay type: binding; settings: co-incubation with unlabeled precursor for 60 min
T1 construct: expressed in transfected cells; host or cells: HT-1080 cells transfected with FAP (HT-1080-FAP)
T1 sequence (Q12884 1-760): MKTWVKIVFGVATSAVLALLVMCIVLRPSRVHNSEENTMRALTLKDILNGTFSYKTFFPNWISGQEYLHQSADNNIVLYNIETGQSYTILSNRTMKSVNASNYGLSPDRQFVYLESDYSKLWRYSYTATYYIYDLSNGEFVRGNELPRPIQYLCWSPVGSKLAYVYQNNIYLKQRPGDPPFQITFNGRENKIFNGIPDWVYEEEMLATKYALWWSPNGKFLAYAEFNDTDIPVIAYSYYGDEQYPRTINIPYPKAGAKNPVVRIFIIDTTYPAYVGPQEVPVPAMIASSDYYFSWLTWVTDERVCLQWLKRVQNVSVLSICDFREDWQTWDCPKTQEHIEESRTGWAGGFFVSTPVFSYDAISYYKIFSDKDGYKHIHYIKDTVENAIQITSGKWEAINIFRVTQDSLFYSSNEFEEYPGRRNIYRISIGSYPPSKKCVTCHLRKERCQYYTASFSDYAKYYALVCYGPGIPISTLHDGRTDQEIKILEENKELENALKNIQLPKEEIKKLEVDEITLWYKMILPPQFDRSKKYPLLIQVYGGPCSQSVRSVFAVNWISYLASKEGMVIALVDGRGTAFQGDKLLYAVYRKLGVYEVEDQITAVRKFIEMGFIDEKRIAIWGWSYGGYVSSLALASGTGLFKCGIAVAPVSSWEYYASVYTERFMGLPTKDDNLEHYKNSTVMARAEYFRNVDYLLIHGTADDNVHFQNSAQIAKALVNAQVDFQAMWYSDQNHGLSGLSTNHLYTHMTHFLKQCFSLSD
Description: (§1) The binding properties of the FAPI derivatives were evaluated using the FAP‐transfected HT‐1080‐FAP and CD26 expressing HEK-CD26 cells. All cells were cultivated in Dulbecco's modified Eagle's medium (DMEM) containing 10% fetal calf serum (FCS) at 37 °C/5% carbon dioxide. Cells were seeded in 6-well plates and cultivated to a final confluence of approximately 80–90% (1.2 to 2.0 × 10^6 cells/well). After washing with FCS free medium, for each well ca. 3 kBq of the radiolabeled compound (10–20 GBq/µmol for [^18F]AlF-labeling) was added to the cells in FCS free medium. On completion of the individual incubation time, cells were washed with PBS and treated with 1.4 mL lysis buffer (0.3 m NaOH, 0.2% SDS) before being transferred to measuring tubes. Competition experiments were performed by co-incubation with the unlabeled precursor for 60 min. Radioactivity was determined in a Wizard Gamma Counter (Perkin Elmer), normalized to 10^6 cells and calculated as percentage of the applied dose (%AD). Each experiment was performed in triplicate.

[1] = molecular target: T2, FAP‐transfected HT‐1080‐FAP cells (Homo sapiens, UniProt Q12884); assay: In vitro binding/uptake on FAP-transfected HT-1080-FAP cells; assay type: cell-based; settings: HT1080-FAP cells
T2 construct: expressed in transfected cells; host or cells: HT-1080 cells transfected with FAP (HT-1080-FAP)
T2 sequence (Q12884 1-760): T1 sequence (Q12884 1-760)
Description: as §1

wild type HT1080 cells = assay: In vitro binding on wild type HT1080 cells (negative control); assay type: cell-based
Description: as §1
Table 1 summarizes the uptake and EC50 values of the discussed ^18F-labeled FAPI derivatives using the FAP-transfected cell line HT-1080-FAP. Additionally, the lead candidates FAPI-74 to -76 were tested on HEK-CD26 as well as -74 and -75 on wild type HT1080 cells as negative control. […] For FAPI-74, a plateau was already reached after approximately 10 min with 27.2 ± 0.88%AD/10^6cells. […] The EC50 values were all in the low to sub-nanomolar range. Only a neglectable fraction of FAPIs 74–76 were detected on HEK-CD26 cells (0.18–0.24%) as well as on wildtype HT1080 in case of -74 and 75 (< 0.1%).

[2] = molecular target: T3, CD26 expressing HEK-CD26 cells (Homo sapiens, UniProt P27487); assay: In vitro binding on HEK-CD26 cells (negative control); assay type: cell-based
T3 construct: expressed in transfected cells; host or cells: HEK cells transfected with CD26/DPP4 (HEK-CD26)
Description: as §1

HT-1080-FAP xenografts = assay: Small animal PET imaging; assay type: in vivo, BALB/c nu/nu mice
Description: Eight-week-old BALB/c nu/nu mice (Charles River) were subcutaneously inoculated with 5 × 10^6 HT-1080-FAP cells. The subcutaneous xenografts were grown at the flanks of the mice. Xenografts were grown to a tumor diameter of 10–15 mm. Mice were anesthetized using isoflurane inhalation. 5–10 MBq of the [^18F]AlF-labeled compounds/ the respective tracer (FAPI-42/52/74/75/76; approx. 0.5 nmol; Am approximately 10–20 GBq/µmol) were injected intravenously for PET imaging. In vivo competition (blocking) experiments with ^68 Ga-FAPI-74 (9 MBq; 18.2 GBq/µmol) were performed by adding 30 nmol of unlabeled FAPI-74 to the injection solution. Images were acquired using a small-animal PET scanner (Inveon, Siemens). Within the first 60 min p.i., a dynamic scan was performed in list mode, followed by a static scan from 120–140 min post injection. Images were reconstructed iteratively using the 3D-OSEM + MAP method (Siemens) and were converted to standardized uptake value (SUV). For the dynamic analysis, 28 frames were reconstructed. Quantification was based on ROI analysis and expressed as SUV.
SUPPLEMENTAL TABLE 1: Tumor-SUVmean values of all mentioned ^18F labeled FAPI-derivatives in HT1080-FAP transplanted nude mice at different time points. The time points 8 min, 22 min and 57 min were selected from the applied 28-frame 3D-OSEM+MAP (Siemens) reconstruction method.

[3] = small animal PET, HT-1080-FAP xenograft

T3 sequence (P27487 whole entry): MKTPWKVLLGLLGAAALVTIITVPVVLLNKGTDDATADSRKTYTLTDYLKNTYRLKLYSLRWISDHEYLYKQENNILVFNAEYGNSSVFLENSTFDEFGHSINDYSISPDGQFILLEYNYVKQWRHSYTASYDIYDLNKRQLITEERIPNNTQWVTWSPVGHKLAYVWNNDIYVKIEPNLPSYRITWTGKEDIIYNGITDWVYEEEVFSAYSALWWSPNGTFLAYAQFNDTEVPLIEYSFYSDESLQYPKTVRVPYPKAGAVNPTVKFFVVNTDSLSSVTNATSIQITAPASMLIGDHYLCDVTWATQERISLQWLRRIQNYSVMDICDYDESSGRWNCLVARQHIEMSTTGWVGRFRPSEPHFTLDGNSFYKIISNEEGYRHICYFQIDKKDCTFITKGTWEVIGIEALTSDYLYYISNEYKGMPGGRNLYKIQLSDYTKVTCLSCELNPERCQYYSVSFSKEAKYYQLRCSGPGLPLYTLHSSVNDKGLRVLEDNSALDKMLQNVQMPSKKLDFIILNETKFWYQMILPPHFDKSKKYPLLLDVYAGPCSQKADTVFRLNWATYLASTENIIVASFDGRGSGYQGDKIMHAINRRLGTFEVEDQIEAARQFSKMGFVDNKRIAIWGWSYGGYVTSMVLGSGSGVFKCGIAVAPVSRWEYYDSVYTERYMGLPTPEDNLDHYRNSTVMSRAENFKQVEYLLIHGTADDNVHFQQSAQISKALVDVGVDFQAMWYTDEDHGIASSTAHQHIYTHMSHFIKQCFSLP

N#C[C@@H]1CCCN1C(=O)CNC(=O)c1ccnc2ccc(OCCCN3CCN(C(=O)CN4CCN(CC(=O)O)CCN(CC(=O)O)CC4)CC3)cc12 [FAPI-74]
EC50 (FAP (HT-1080-FAP cells)): 4.2 nM | uptake 10 min ([1]; 10 min incubation): 27.2 ± 0.88 %AD/10^6 cells | uptake 60 min ([1]; 60 min incubation): 29.7 ± 0.66 %AD/10^6 cells | uptake 120 min ([1]; 120 min incubation): 30.39 ± 2.47 %AD/10^6 cells | uptake WT (wild type HT1080 cells; wild type HT1080 control cells): 0.07 ± 0.03 %AD/10^6 cells | fraction detected on wildtype HT1080 (wild type HT1080 cells; wildtype HT1080, text): < 0.1% | uptake CD26 [2]: 0.18 ± 0.04 %AD/10^6 cells | Tumor Uptake (SUVmean) 8 min (HT-1080-FAP xenografts; HT1080-FAP transplanted nude mice, 8 min): 1.58 | Tumor Uptake (SUVmean) 22 min (HT-1080-FAP xenografts; HT1080-FAP transplanted nude mice, 22 min): 1.81 | Tumor Uptake (SUVmean) 57 min (HT-1080-FAP xenografts; HT1080-FAP transplanted nude mice, 57 min): 1.91 | Tumor Uptake (SUVmean) 120 min (HT-1080-FAP xenografts; HT1080-FAP transplanted nude mice, 120 min): 1.3 | excretion pathway (HT-1080-FAP xenografts; small animal PET in tumor bearing mice): favorable renal excretion | tumor uptake SUVmean (HT-1080-FAP xenografts; small animal PET screening, discussion): approx. 2.0 | tumor-SUV max (HT-1080-FAP xenografts; [3]): 2.3 | tumor-SUV mean (HT-1080-FAP xenografts; [3]): 1.9
